Measured values published in patent publication US7858635B2 (priority 2005, dated 2010).
Read-outs that look alike come from different tables or passages of the source.

Key:
M4 muscarinic receptor = biological target: T1, M4 muscarinic receptor (Homo sapiens, UniProt P08173); experiment: Functional mobilization of intracellular calcium (FLIPR, Fluo-3), M4-CHO cells; type: cell-based; details: for Emax / M4 Efficacy: 100% efficacy is the maximum response obtained with the Carbachol control; for Emax: read-out: M4 Efficacy
T1 construct: expressed in transfected cells; host or cells: CHO cells (M4-CHO, under puromycin, zeocin and blasticidin selection)
T1 sequence (P08173 1-479): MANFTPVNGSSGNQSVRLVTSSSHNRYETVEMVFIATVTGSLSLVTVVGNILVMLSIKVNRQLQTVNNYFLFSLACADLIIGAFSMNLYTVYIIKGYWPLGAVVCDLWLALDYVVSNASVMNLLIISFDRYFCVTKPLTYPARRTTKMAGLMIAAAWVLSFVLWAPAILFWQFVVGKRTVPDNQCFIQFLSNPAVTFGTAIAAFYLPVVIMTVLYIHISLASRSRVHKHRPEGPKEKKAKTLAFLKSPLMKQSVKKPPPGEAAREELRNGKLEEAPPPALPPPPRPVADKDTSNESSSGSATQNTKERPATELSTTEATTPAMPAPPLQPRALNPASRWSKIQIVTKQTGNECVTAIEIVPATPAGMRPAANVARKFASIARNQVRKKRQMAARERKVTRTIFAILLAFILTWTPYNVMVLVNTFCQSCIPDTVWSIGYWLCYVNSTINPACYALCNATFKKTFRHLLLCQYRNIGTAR
Method in brief: (§1)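 Fluo-3 read-out, ex 488/em 540 nm, 60 sec on FLIPR 3. For agonist mode, compound added directly; for inhibition, 15 min compound pre-incubation before carbachol at EC80 (added as a 3× solution), or co-application. Buffer pH 7.4 with 1 mM probenecid; DMSO 0.5%.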

M1 muscarinic receptor = biological target: T2, M1 muscarinic receptor (Homo sapiens, UniProt P11229); experiment: Functional mobilization of intracellular calcium (FLIPR, Fluo-3), M1-CHO cells; type: cell-based; details: for Emax / M1 Efficacy: 100% efficacy is the maximum response obtained with the Carbachol control; for Emax: read-out: M1 Efficacy
T2 construct: expressed in transfected cells; host or cells: CHO cells (M1-CHO, under zeocin and G418 selection)
T2 sequence (P11229 1-460): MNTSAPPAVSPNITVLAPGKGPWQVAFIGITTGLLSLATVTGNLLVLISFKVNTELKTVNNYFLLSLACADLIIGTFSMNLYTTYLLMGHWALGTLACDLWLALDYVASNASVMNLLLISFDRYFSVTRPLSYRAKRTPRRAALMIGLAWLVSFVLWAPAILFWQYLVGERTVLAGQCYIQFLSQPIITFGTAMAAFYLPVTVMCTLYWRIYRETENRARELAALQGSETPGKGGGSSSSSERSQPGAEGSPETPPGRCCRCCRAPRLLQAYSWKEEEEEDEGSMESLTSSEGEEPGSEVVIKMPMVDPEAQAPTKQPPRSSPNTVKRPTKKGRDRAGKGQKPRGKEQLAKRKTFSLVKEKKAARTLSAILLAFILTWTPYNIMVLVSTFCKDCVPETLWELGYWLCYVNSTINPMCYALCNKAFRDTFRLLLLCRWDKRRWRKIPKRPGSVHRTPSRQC
Method in brief: as §1

[1] = compound nos. 1-454, M4-CHO cells, calcium mobilization
[2] = compound nos. 1-454, M1-CHO cells, calcium mobilization

| Compound | Emax (M4 muscarinic receptor; compound nos. 1-454) | M4 Activity (M4 muscarinic receptor; [1]) | Emax (M1 muscarinic receptor; compound nos. 1-454) | M1 Activity (M1 muscarinic receptor; [2]) | M4 Activity (M4 muscarinic receptor; compound nos. 1-454) | M1 Activity (M1 muscarinic receptor; compound nos. 1-454) | further results |
| --- | --- | --- | --- | --- | --- | --- | --- |
| CC(=O)NC1CC2(CCN(C3CC4CCC3C4)CC2)c2ccccc21 (stereo not drawn) [compound 291] | 55 to 70% | + (activity was measured to be greater than or equal to 4.0 μM) | 65 to 85% | ++ (activity was measured to be between 0.7 μM and 3.0 μM) |  |  |  |
| COCCOC(=O)N1CC2(CCN(C3CC4CCC(C3)N4C(=O)OC(C)C)CC2)c2cc(F)ccc21 (stereo not drawn) [compound 422] | < 55% |  | < 65% |  | + (activity was measured to be greater than or equal to 4.0 μM) | +++ (activity was measured to be less than or equal to 0.7 μM) |  |
| Clc1ccc2c(c1)C1(CCN(C3C[C@@H]4CCC3C4)CC1)CO2 (stereo in doubt) [compound 1, 1′-((1S,2R,4R)-bicyclo[2.2.1]heptan-2-yl)-5-chloro-2H-spiro[benzofuran-3,4′-piperidine]] | > 70% | ++ (activity was measured to be between 0.1 μM and 4.0 μM) | 65 to 85% | ++ (activity was measured to be between 0.7 μM and 3.0 μM) |  |  |  |
| Cc1ccc2c(c1)C1(CCN(C3CC4CCC3C4)CC1)CN2C(=O)c1ccno1 (stereo not drawn) [compound 292] | 55 to 70% | + (activity was measured to be greater than or equal to 4.0 μM) | 65 to 85% | ++ (activity was measured to be between 0.7 μM and 3.0 μM) |  |  |  |
| O=C1CC2(CCN(C[C@@H]3C[C@H]4C=C[C@H]3C4)CC2)c2ccccc21 [compound 238] | < 55% | + (activity was measured to be greater than or equal to 4.0 μM) | < 65% | + (activity was measured to be greater than or equal to 3.0 μM) |  |  |  |
| CC(=O)NC1CC2(CCN(C[C@@H]3C[C@H]4C=C[C@H]3C4)CC2)c2ccccc21 (stereo partly drawn) [compound 421] |  |  |  |  | + (activity was measured to be greater than or equal to 4.0 μM) | + (activity was measured to be greater than or equal to 3.0 μM) | M4 Efficacy (M4 muscarinic receptor; compound nos. 1-454): + (efficacy was calculated to be 55% or less); M1 Efficacy (M1 muscarinic receptor; compound nos. 1-454): + (efficacy was calculated to be 65% or less) |
| CC(=O)N1CCC2(CCN(C3CCN(c4nc(C)cs4)CC3)CC2)c2ccccc21 [compound 483] |  |  |  |  |  |  | Emax (M4 muscarinic receptor; compound nos. 455-509): 25 to 100%; M4 Activity (M4 muscarinic receptor; compounds 455-509): ++ (activity was measured to be between 2.0 μM and 5.0 μM); Emax (M1 muscarinic receptor; compound nos. 455-509): 25 to 100%; M1 Activity (M1 muscarinic receptor; compounds 455-509): ++ (activity was measured to be between 2.0 μM and 5.0 μM) |
| Cc1nsc(N2CCC(N3CCC4(CCN(C(=O)N(C)C)c5ccccc54)CC3)CC2)n1 [compound 474] |  |  |  |  |  |  | Emax (M4 muscarinic receptor; compound nos. 455-509): 25 to 100%; M4 Activity (M4 muscarinic receptor; compounds 455-509): ++ (activity was measured to be between 2.0 μM and 5.0 μM); Emax (M1 muscarinic receptor; compound nos. 455-509): > 100%; M1 Activity (M1 muscarinic receptor; compounds 455-509): +++ (activity was measured to be less than or equal to 2.0 μM) |
| c1ccc2c(c1)NCC21CCN(C2CCCCC2)CC1 [compound 375] | 55 to 70% |  | > 85% |  | +++ (activity was measured to be less than or equal to 0.1 μM) | +++ (activity was measured to be less than or equal to 0.7 μM) |  |
| O=C1Nc2ccccc2C12CCN(C1CC3CCC1C3)CC2 (stereo not drawn) [compound 259] | < 55% | + (activity was measured to be greater than or equal to 4.0 μM) | 65 to 85% | + (activity was measured to be greater than or equal to 3.0 μM) |  |  |  |
| COc1ccc(F)cc1N1CCC(N2CCC3(CC2)CN(C(=O)N(C)C)c2ccc(F)cc23)CC1 [compound 443] | 55 to 70% |  | 65 to 85% |  | ++ (activity was measured to be between 0.1 μM and 4.0 μM) | ++ (activity was measured to be between 0.7 μM and 3.0 μM) |  |
| CC#CCOC(=O)N1CCC(N2CCC3(CC2)CN(C(=O)N(C)C)c2ccc(F)cc23)CC1 [compound 353] | 55 to 70% | + (activity was measured to be greater than or equal to 4.0 μM) | > 85% | +++ (activity was measured to be less than or equal to 0.7 μM) |  |  |  |
| CCCC1CCC(N2CCC3(CC2)CNc2ccc(Cl)cc23)CC1 (stereo not drawn) [compound 341] | < 55% | + (activity was measured to be greater than or equal to 4.0 μM) | < 65% | + (activity was measured to be greater than or equal to 3.0 μM) |  |  |  |
| CCOC(=O)N1CCC(N2CCC3(CC2)CN(C(=O)OCC)c2ccc(F)cc23)CC1 [compound 427] | < 55% |  | < 65% |  | + (activity was measured to be greater than or equal to 4.0 μM) | ++ (activity was measured to be between 0.7 μM and 3.0 μM) |  |
| Cc1cc(C(=O)N2CC3(CCN(C4CC5CCC(C4)N5C(=O)O[C@H]4CCOC4)CC3)c3cc(F)ccc32)nn1C (stereo partly drawn) [compound 411] |  |  |  |  | ++ (activity was measured to be between 0.1 μM and 4.0 μM) | +++ (activity was measured to be less than or equal to 0.7 μM) | M4 Efficacy (M4 muscarinic receptor; compound nos. 1-454): + (efficacy was calculated to be 55% or less); M1 Efficacy (M1 muscarinic receptor; compound nos. 1-454): + (efficacy was calculated to be 65% or less) |
| COCCOC(=O)N1CC2(CCN(C3CC4CCC(C3)N4C(=O)OCCOC)CC2)c2cc(F)ccc21 (stereo not drawn) [compound 117] | < 55% | ++ (activity was measured to be between 0.1 μM and 4.0 μM) | 65 to 85% | +++ (activity was measured to be less than or equal to 0.7 μM) |  |  |  |
| Cc1cc(C(=O)N2CC3(CCN(C4CC5CCC(C4)N5C(=O)OC(C)C)CC3)c3cc(F)ccc32)nn1C (stereo not drawn) [compound 24] | < 55% | + (activity was measured to be greater than or equal to 4.0 μM) | < 65% | ++ (activity was measured to be between 0.7 μM and 3.0 μM) |  |  |  |
| CN(C)C(=O)N1CC2(CCN(CC3CCN(c4cnccn4)C3)CC2)c2cc(F)ccc21 (stereo not drawn) [compound 448] | 55 to 70% |  | > 85% |  | +++ (activity was measured to be less than or equal to 0.1 μM) | +++ (activity was measured to be less than or equal to 0.7 μM) |  |
| CCCOC(=O)N1CC2(CCN(C3CCN(C(=O)OCC)CC3)CC2)c2cc(F)ccc21 [compound 114] | < 55% | + (activity was measured to be greater than or equal to 4.0 μM) | 65 to 85% | ++ (activity was measured to be between 0.7 μM and 3.0 μM) |  |  |  |
| CCOC(=O)N1CCC(C)(CN2CCC3(CC2)C[C@H](NC(C)=O)c2ccccc23)CC1 [compound 315] | < 55% | + (activity was measured to be greater than or equal to 4.0 μM) | < 65% | + (activity was measured to be greater than or equal to 3.0 μM) |  |  |  |
| CC(=O)N[C@H]1CC2(CCN(C3C4CC5CC(C4)CC3C5)CC2)c2ccccc21 (stereo partly drawn) [compound 4] | < 55% | + (activity was measured to be greater than or equal to 4.0 μM) | < 65% | +++ (activity was measured to be less than or equal to 0.7 μM) |  |  |  |
